The values that follow come from patent EP4650353A1 (Shanghai Institute of Materia Medica, Chinese Academy of …, priority 2023, dated 2024).

pEC50, pIC50: −log10 of the molar value.

One assay relates to β-arrestin 2. Put plainly: NanoBiT recruitment of β-arrestin 2 by GLP-1R in HEK293 cells.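 Further: 100% equals the maximal response of endogenous GLP-1.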 The note with it: Homo sapiens, read-out: maximum agonistic effect (Emax) recruiting β-arrestin 2. The format is cell-based. The text has this:
(§1) The Promega NanoBiT protein-protein reaction system was used to detect the recruitment of β-arrestin 1 and β-arrestin 2 by GLP-1R. The NanoBit Protein-Protein Reaction System was a dual-subunit system based on NanoLuc luciferase that could be used to detect protein-protein interactions in cells. The LgBiT (17.6 kDa) and SmBiT (11 amino acids) subunits were fused to the proteins of interest, respectively. When the proteins of interest interact, the two subunits came into close proximity to form an enzyme with catalytic activity, which could catalyze the luminescence of the luciferase substrate. Firstly, the human GLP-1R gene was connected to the N-terminus of LgBit, the β-arrestin 1/2 gene was cloned to the C-terminus of SmBit, and the fusion protein was introduced into the pcDNA3.0 vector to construct plasmids expressing hGLP-1R-LgBit and SmBit-β-arrestin 1/2 fusion proteins. The hGLP-1R-LgBit plasmid and SmBit-β-arrestin 1 (or SmBit-β-arrestin 2) plasmid were co-transfected into HEK293 cells at a ratio of 1 µg plasmid/2×10^6 cells. Immediately after transfection, the cells were added to a 96-well white-bottom plate at a density of 4×10^5 cells/well, and the cells were cultured in an incubator (37°C, 5% CO2) for 20 hours.
(§2) After 20 hours, the liquid in the wells was discarded, 40 µL of fresh culture medium (DMEM+0.2% BSA, m/v) was added first, and then 10 µL of Nano-Glo Live Cell detection solution (Promega, #N2011) was added, and then the cells were placed in an incubator and incubated for 10 minutes. The compound was dissolved in DMSO and prepared into a storage solution with a concentration of 10mM. The experiment started with a concentration of 100µM. […] After the cells were incubated for 10 min, 25 µL of culture medium containing the compound was added to each well and incubated at room temperature for 5 min. The fluorescence signal was then detected using an Envision 2104 multi-function microplate reader (PerkinElmer). All samples were tested in triplicate, and the fluorescence signal ratio and the corresponding compound concentration were analyzed using GraphPad Prism 8 software.

The test system of assay [1] is hGLP-1 receptor knock-in mice. Put plainly: Oral glucose tolerance test in mice. The conditions noted are these: for effect compared with positive control PF-06882961 ammonium salt at the same dose: oral glucose tolerance test; for blood glucose area under the curve / blood glucose concentration: orally administered at 1 mg/kg, vs blank control; for blood glucose area under the curve: AUC(0-90). The class given is in vivo. The method, then: (§3) Genetically engineered hGLP-1R gene knock-in mice, male, 8-10 weeks old, specific pathogen free (SPF) grade, were purchased from Biocytogen Jiangsu Gene Biotechnology Co., Ltd. All experimental animals were housed in the SPF-level environment of the National Compound Sample Library animal room, with a temperature of 24±2°C, a relative humidity of 40-60%RH, an air cleanliness level of 7, and a day and night light-dark cycle of 12h/12h; they were continuously supplied with cobalt-60 radiation-sterilized complete mouse granular feed (Shanghai Shilin Biotechnology Co., Ltd., maintenance feed for rats and mice), and were allowed to drink tap water (sterilized with high-pressure steam) without interruption, and were allowed to drink it freely. The cages were transparent polyetherimide cages (Suzhou Fengshi Experimental Animal Equipment Co., Ltd., CP-8 mouse cages), and the bedding was corn cobs (Tezhou Gumei Agricultural Technology Co., Ltd., used after high-pressure steam sterilization). There were 3-5 animals in each cage, and the cage card indicated the IACUC approval number, experiment number, experiment start time, person in charge, experimenter, animal source, group and animal number. The purchased mice were adapted to this breeding environment for at least 7 days before being used in experiments. The animal use methods in this study were approved by the IACUC Committee of the Shanghai Institute of Materia Medica.
60 minutes after oral administration, blood glucose was measured again as zero-point blood glucose. Then, 2 g/kg of sugar was orally administered, and blood glucose was measured using a blood glucose meter 15 minutes, 30 minutes, 60 minutes, and 90 minutes after sugar administration. In order to explore the effect of long-term administration on glucose tolerance, 2 g/kg of sugar was orally administered again […] the administration of the compound, and the blood glucose changes were measured at 180 min, 195 min, 210 min, 240 min, and 270 min.

The next assay has as its system β-arrestin 1. Nature of the assay: NanoBiT recruitment of β-arrestin 1 by GLP-1R in HEK293 cells.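 Further: 100% equals the maximal response of endogenous GLP-1.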 The format is cell-based. The note with it: Homo sapiens, read-out: maximum agonistic effect (Emax) recruiting β-arrestin 1.
From the text: as §1, §2

The next assay addresses hERG potassium channels (Homo sapiens, UniProt Q12809). Put plainly: cell-based. The method, then:
CHO cells expressing hERG protein were cultured in 175 cm^2 culture flasks. When the cell density grew to 60-80%, the culture medium was removed, the cells were washed once with 7 mL PBS, and then 3 mL Detachin was added for digestion. After digestion was complete, 7 mL of culture medium was added to neutralize, then centrifuged. The supernatant was aspirated, and 5 mL of culture medium was added to resuspend to ensure that the cell density is 2-5×10^6/mL.
Both the single-cell high-impedance sealing and whole-cell mode formation processes were automatically completed by the Qpatch instrument. After obtaining the whole-cell recording mode, the cell was clamped at -80 mV. Before a 5-second +20 mV depolarizing stimulus was given, a 50-ms -50 mV pre-voltage was given, and then the cell was repolarized to -50 mV for 5 seconds and then returned to -80 mV. This voltage stimulation was applied every 15 seconds. After recording for 2 minutes, the extracellular solution was recorded for 2 minutes. Then the drug administration process began. The compound concentration started from the lowest tested concentration. Each tested concentration was given for 2 minutes. […] At least three cells were tested for each concentration (n≥3).
The compound stock solution was diluted with extracellular fluid, 5 µL of 20 mM compound stock solution was added to 2495 µL extracellular fluid, diluted 500 times to 40 µM, and then serially diluted 3 times in extracellular fluid containing 0.2% DMSO (v/v) to obtain the final concentration to be tested.
The experimental data were analyzed by XLFit software.

The next assay relates to hGLP-1R KI mice. Nature of the assay: Diet inhibition by Tris salts (food intake after single oral dose). The format is in vivo. The note with it: 30 mg/kg; for duration of the food intake reducing effect / food intake: Tris salt, single oral administration. The method, then:
Mouse model: hGLP-1R KI mice, 8 female mice per experimental group.
Experimental procedure: Mice were separated into cages and fasted 6 hours in advance, and were given drugs by oral gavage at the beginning of the night cycle (7:00 PM). The weight of food in each cage was weighed at 0, 2.5, 5, 12 (7:00 AM at the beginning of the day cycle), and 24 hours after drug administration to calculate the food intake of mice.

A further assay concerns the target T1, human GLP-1 receptor (Homo sapiens, UniProt P43220).
T1 construct: HA (N); expressed in transfected cells
Put plainly: GLP-1 receptor-mediated agonist activity: cAMP level in hGLP-1R/HEK293 cell line (HTRF). The format is cell-based. The note with it: cAMP levels in hGLP-1R/HEK293 cell line; Table 1; read-out: determined EC50.

Assay [2] relates to hGLP-1 receptor knock-in mice. Put plainly: Long-term administration in high-fat diet fed hGLP-1R mice for weight loss. The note with it: ammonium salt. The class given is in vivo. The method, then: as §3
The mice were weighed every day, and 24 hours after the last administration, the body fat and muscle content of the mice were detected using a Bruker desktop nuclear magnetic resonance spectrometer (model LF90II). • (4) Experimental results

For assay [3], the system named is hGLP-1 receptor knock-in mice. Put plainly: Mouse food intake suppression experiment (compound 19). The conditions noted are these: 30 mg/kg oral. The format is in vivo. The method, then: as §3, with “The animal use methods in this study were approved by the IACUC Committee of the Shanghai Institute of Materia Medica.” left out

T1 sequence (P43220 24-463): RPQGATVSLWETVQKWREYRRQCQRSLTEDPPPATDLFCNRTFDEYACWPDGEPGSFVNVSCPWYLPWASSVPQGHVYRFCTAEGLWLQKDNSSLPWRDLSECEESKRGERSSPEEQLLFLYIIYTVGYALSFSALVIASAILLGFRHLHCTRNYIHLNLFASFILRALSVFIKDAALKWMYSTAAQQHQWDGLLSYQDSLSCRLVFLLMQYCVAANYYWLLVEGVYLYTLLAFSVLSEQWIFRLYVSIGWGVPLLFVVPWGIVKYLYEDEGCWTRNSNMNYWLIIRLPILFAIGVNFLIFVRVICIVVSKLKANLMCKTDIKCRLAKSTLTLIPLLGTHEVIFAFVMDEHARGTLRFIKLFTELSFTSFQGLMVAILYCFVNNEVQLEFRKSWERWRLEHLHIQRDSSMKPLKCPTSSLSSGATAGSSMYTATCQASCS
Sequence of hERG potassium channels (Q12809 whole entry): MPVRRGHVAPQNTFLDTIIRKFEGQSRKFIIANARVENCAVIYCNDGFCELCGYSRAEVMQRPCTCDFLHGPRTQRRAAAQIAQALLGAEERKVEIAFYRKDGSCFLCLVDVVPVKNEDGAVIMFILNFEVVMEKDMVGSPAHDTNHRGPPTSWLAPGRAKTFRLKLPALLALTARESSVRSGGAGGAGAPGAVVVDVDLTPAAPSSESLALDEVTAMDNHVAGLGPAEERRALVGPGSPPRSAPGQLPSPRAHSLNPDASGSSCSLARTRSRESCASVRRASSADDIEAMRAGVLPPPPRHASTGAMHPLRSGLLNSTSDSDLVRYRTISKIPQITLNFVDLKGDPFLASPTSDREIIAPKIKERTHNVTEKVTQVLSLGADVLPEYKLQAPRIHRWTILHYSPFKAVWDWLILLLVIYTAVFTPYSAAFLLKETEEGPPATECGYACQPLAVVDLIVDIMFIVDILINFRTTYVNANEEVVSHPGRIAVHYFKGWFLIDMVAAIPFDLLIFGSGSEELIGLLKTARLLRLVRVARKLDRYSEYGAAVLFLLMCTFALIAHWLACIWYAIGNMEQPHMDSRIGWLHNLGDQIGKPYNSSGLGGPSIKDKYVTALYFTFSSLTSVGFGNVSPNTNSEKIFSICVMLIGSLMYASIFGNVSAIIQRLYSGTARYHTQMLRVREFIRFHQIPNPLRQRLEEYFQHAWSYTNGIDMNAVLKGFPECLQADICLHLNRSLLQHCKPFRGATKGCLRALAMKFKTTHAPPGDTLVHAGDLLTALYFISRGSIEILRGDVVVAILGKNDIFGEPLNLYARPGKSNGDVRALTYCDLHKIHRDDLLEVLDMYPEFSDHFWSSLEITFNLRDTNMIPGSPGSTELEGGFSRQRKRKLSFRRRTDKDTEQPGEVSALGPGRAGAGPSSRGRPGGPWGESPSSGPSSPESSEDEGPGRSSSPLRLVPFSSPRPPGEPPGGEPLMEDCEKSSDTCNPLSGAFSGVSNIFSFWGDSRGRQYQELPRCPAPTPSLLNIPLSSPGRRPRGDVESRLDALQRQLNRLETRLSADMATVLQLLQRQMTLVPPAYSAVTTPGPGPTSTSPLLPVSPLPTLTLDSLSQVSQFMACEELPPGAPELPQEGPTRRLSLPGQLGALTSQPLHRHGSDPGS

Regarding `COc1cc(Cl)ccc1COc1cccc(N2C=NN(Cc3nc4c(OC)cc(C(=O)O)cc4n3C[C@@H]3CCO3)CC2)n1` [Compound 20, (S)-2-((4-(6-((4-chloro-2-methoxybenzyl)oxy)pyridin-2-yl)-5,6-dihydro-1,2,4-triazin-1(4H)-yl)methyl)-4-methoxy-1-(oxetan-2-ylmethyl)-1H-benzo[d]imidazole-6-carboxylic acid], the Emax in the assay with β-arrestin 2 and in the assay on β-arrestin 1 was 30 to 50% in each case. The “effect compared with positive control PF-06882961 ammonium salt at the same dose” value in assay [1] (1 mg/kg oral) was “better than the positive control PF-06882961 ammonium salt”. Further, in assay [1] (ammonium salt), the “blood glucose area under the curve” value was “significantly reduce”. Further, the blood glucose concentration entry in assay [1] (ammonium salt) is “significantly reduce”. This molecule also gave a pIC50 against hERG potassium channels of less than 4.40.

For the molecule `[2H]C([2H])([2H])C([2H])([2H])Oc1cc(C(=O)O)cc2c1nc(CN1CCN(c3cccc4c3O[C@@](C)(c3ccc(C(F)(F)F)cc3F)O4)C=N1)n2C[C@@H]1CCO1` [Compound 82-1, 4-(ethoxy-d5)-2-((4-((S)-2-(2-fluoro-4-(trifluoromethyl)phenyl)-2-methylbenzo[d][1,3]dioxol-4-yl)-5,6-dihydro-1,2,4-triazin-1(4H)-yl)methyl)-1-(((S)-oxetan-2-yl)methyl)-1H-benzo[d]imidazole-6-carboxylic acid], in the assay on hGLP-1R KI mice, the “duration of the food intake reducing effect” value came out at 24 h and the food intake entry was “significantly reduce the food intake”. Also, at human GLP-1 receptor, the pEC50 is 11.29.

For `N#Cc1ccc(COc2cccc(C3CCN(Cc4nc5ccc(C(=O)O)cc5n4C[C@@H]4CCO4)CC3)n2)c(F)c1` [PF-06882961, reference compound], the Emax in the assay with β-arrestin 2 and in the assay with β-arrestin 1 was 75 to 80% each time. Further, in assay [2] (30 mg/kg by gavage once a day, 15 days), the “weight gain of HFD-fed mice” value was “effectively inhibit the weight gain”. For the same molecule, the “reduce body weight compared with the blank control group” value in assay [2] (30 mg/kg once a day, after 15 days of administration, HFD) turned out to be 10.2%.

As to `COc1cc(C#N)ccc1COc1cccc(C2CCN(Cc3nc4c(OC)cc(C(=O)O)cc4n3C[C@@H]3CCO3)CC2)n1` [Compound 4, (S)-2-((4-(6-((4-cyano-2-methoxybenzyl)oxy)pyridin-2-yl)piperidin-1-yl)methyl)-4-methoxy-1-(oxetan-2-ylmethyl)-1H-benzo[d]imidazole-6-carboxylic acid], the Emax in the assay on β-arrestin 2 and in the assay on β-arrestin 1 was 30 to 50% throughout.

In the case of `CCCOc1cc(C(=O)O)cc2c1nc(CN1CCC(c3cccc(OCc4ccc(C#N)cc4F)n3)CC1)n2C[C@@H]1CCO1` [Compound 3, (S)-2-((4-(6-((4-cyano-2-fluorobenzyl)oxy)pyridin-2-yl)piperidin-1-yl)methyl)-1-(oxetan-2-ylmethyl)-4-propoxy-1H-benzo[d]imidazole-6-carboxylic acid], the Emax in the assay with β-arrestin 2 and with β-arrestin 1 was 30 to 50% in each case. Moreover, the pEC50 at human GLP-1 receptor was 11.19.

Turning to `CCOc1cc(C(=O)O)cc2c1nc(CN1CCN(c3cccc4c3O[C@@](C)(c3ccc(C(F)(F)F)cc3F)O4)C=N1)n2C[C@@H]1CCO1` [Compound 81-1, 4-ethoxy-2-((4-((S)-2-(2-fluoro-4-(trifluoromethyl)phenyl)-2-methylbenzo[d][1,3]dioxol-4-yl)-5,6-dihydro-1,2,4-triazin-1(4H)-yl)methyl)-1-(((S)-oxetan-2-yl)methyl)-1H-benzo[d]imidazole-6-carboxylic acid], the “inhibitory effect on eating compared with Tris salt of positive control PF-06882961 at the same dose” value with hGLP-1R KI mice (at 5, 12 and 24 hours) is reported as “significantly better than”. For the same molecule, in the assay on hGLP-1R KI mice, the “duration of the food intake reducing effect” value was determined as 24 h and the food intake entry is reported as “significantly reduce the food intake”. In addition, the pEC50 on human GLP-1 receptor was 11.74.

For the molecule `COc1cc(C(=O)O)cc2c1nc(CN1CCC(c3cccc(OCc4ccc(Cl)cc4F)n3)CC1)n2C[C@@H]1CCO1` [Compound 19, (S)-2-((4-(6-((4-chloro-2-fluorobenzyl)oxy)pyridin-2-yl)piperidin-1-yl)methyl)-4-methoxy-1-(oxetan-2-ylmethyl)-1H-benzo[d]imidazole-6-carboxylic acid], the pEC50 on human GLP-1 receptor is 11.59. Moreover, the “effect compared with positive control PF-06882961 ammonium salt at the same dose” value in assay [1] (1 mg/kg oral) is “better than the positive control PF-06882961 ammonium salt”. Besides, the “lowering blood sugar in long-term oral glucose tolerance test” value in assay [1] (ammonium salt, 1 mg/kg oral, second sugar load 240 min after administration, AUC(180-270), vs PF-06882961 ammonium salt) is on record as “more significant effect in lowering blood sugar”. Also, in assay [1] (ammonium salt), the “blood glucose area under the curve” value was “significantly reduce” and the blood glucose concentration result is listed as “significantly reduce”. Moreover, in assay [3], the “effect on food intake compared with positive control PF-06882961 ammonium salt at the same dose” value was “better than the positive control PF-06882961 ammonium salt”. Besides, the food intake result in assay [3] (ammonium salt, within 0 to 12 hours after administration) is reported as “significantly inhibit the food intake”. For the same molecule, the pIC50 on hERG potassium channels is 4.90.
